Where two headings read alike, the source gives them in different places.
What was measured:
[1] = Study 1 plasma pharmacokinetics of verinurad, allopurinol and oxypurinol; type: in vivo, human; conditions: for Tmax: median (range)
Protocol: Cohort 1 was randomized, double‐blind, and placebo‐controlled and consisted of 12 healthy Asian participants, of whom <50% were Chinese. Cohort 2 was open‐label, consisting of 9 healthy Chinese participants.
In both studies, participants received verinurad capsules with an extended‐release profile. On the days of pharmacokinetic sampling, treatment was given in fasting state.
Verinurad plasma samples were analyzed using similar methodologies as described by Shen et al.[13] with lower and upper limits of quantification of 0.100 ng/mL and 40.0 ng/mL, respectively.

[2] = tested on: serum uric acid (sUA) and urinary uric acid (uUA); conditions: for sUA mean percentage change from screening: after 300 mg allopurinol QD for 7 days, day 1 (pre-dose); for sUA level at baseline (day –1): following 7 days of 300 mg allopurinol run-in
[3] = human, plasma, oral, healthy Asian participants, 24 mg verinurad + 300 mg allopurinol QD, Day 1, geometric mean (gCV%), read-out: Cmax
[4] = human, plasma, oral, healthy Asian participants, 24 mg verinurad + 300 mg allopurinol QD, Day 1, read-out: tmax
[5] = human, plasma, oral, healthy Asian participants, 24 mg verinurad + 300 mg allopurinol QD, Day 7, geometric mean (gCV%), read-out: AUCτ
[6] = human, plasma, oral, healthy Asian participants, 24 mg verinurad + 300 mg allopurinol QD, Day 7, geometric mean (gCV%), read-out: Cmax
[7] = human, plasma, oral, healthy Chinese participants, 12 mg verinurad + 300 mg allopurinol day 1 and QD days 3-9, Day 9, geometric mean (gCV%), read-out: AUCτ
[8] = human, plasma, oral, healthy Chinese participants, 12 mg verinurad + 300 mg allopurinol day 1 and QD days 3-9, Day 9, read-out: tmax
[9] = human, plasma, oral, healthy Chinese participants, 12 mg verinurad + 300 mg allopurinol, Day 1, geometric mean (gCV%), read-out: AUC
[10] = human, plasma, oral, healthy Chinese participants, 12 mg verinurad + 300 mg allopurinol, Day 1, geometric mean (gCV%), read-out: AUCτ
[11] = human, plasma, oral, healthy Chinese participants, 12 mg verinurad + 300 mg allopurinol, Day 1, geometric mean (gCV%), read-out: Cmax
[12] = human, plasma, oral, healthy Chinese participants, 12 mg verinurad + 300 mg allopurinol, Day 1, read-out: tmax

| Cmax [1, 3] | Tmax [1, 4] | AUC [1, 5] | Cmax [1, 6] | AUC [1, 7] | Tmax [1, 8] | AUC [1, 9] | AUC [1, 10] | Cmax [1, 11] | Tmax [1, 12] | Compound | other results |
| --- | --- | --- | --- | --- | --- | --- | --- | --- | --- | --- | --- |
| 11100 ng/mL | 3 h | 120000 ng·h/mL | 7700 ng/mL | 139000 ng·h/mL | 3.1 h | 342000 ng·h/mL | 201000 ng·h/mL | 11800 ng/mL | 2 h | O=c1[nH]c(=O)c2c[nH]nc2[nH]1 [Oxypurinol, oxypurinol] | AUCτ ([1]; healthy Asian participants, 24 mg verinurad + 300 mg allopurinol QD, Day 1, geometric mean (gCV%)): 180700 (18.3) ng·h/mL; Tmax ([1]; healthy Asian participants, 24 mg verinurad + 300 mg allopurinol QD, Day 7): 4.00 (3.00–6.00) h; Cmax ([1]; healthy Chinese participants, 12 mg verinurad + 300 mg allopurinol day 1 and QD days 3-9, Day 9, geometric mean (gCV%)): 8520 (10.5) ng/mL |
| 1770 ng/mL | 2 h | 6020 ng·h/mL | 1780 ng/mL | 5740 ng·h/mL | 2.55 h | 6210 ng·h/mL | 6210 ng·h/mL | 1940 ng/mL | 1.52 h | Oc1ncnc2[nH]ncc12 [allopurinol, reference compound] | AUC ([1]; human, plasma, oral, healthy Asian participants, 24 mg verinurad + 300 mg allopurinol QD, Day 1, geometric mean (gCV%), read-out: AUC): 6220 ng·h/mL; AUC ([1]; human, plasma, oral, healthy Asian participants, 24 mg verinurad + 300 mg allopurinol QD, Day 1, geometric mean (gCV%), read-out: AUCτ): 6230 ng·h/mL; Tmax ([1]; human, plasma, oral, healthy Asian participants, 24 mg verinurad + 300 mg allopurinol QD, Day 7, read-out: tmax): 3 h; Cmax ([1]; human, plasma, oral, healthy Chinese participants, 12 mg verinurad + 300 mg allopurinol day 1 and QD days 3-9, Day 9, geometric mean (gCV%), read-out: Cmax): 1570 ng/mL; sUA mean percentage change from screening ([2]; healthy Asian participants): −26.1%; sUA level at baseline (day –1) ([2]; healthy Asian participants, screening 6.31 mg/dL): 4.77 mg/dL; sUA mean percentage change from screening ([2]; healthy Chinese participants): −23.5%; sUA level at baseline (day –1) ([2]; healthy Chinese participants, screening 5.64 mg/dL): 4.49 mg/dL |
